Source: PubChem BioAssay AID1918996 (Molecular Pharmacology Branch, DTP, NCI, 2023)
pIC50: −log10 of the molar value. “And” between values parts separate entries of the source, which are not always exact repeats. Identical values can stand only once.

System: 349418-098-R-PDC complex spheroid growth
Assay: Anticancer human tumor 349418-098-R-PDC patient-derived lung adenocarcinoma cell line growth inhibition [AhR]
Settings: for viability, T/C: stronger effect = lower value
From the text: Multicellular complex tumor spheroid response to aryl hydrocarbon receptor antagonists in combination with a variety of drugs and investigational agents in selected tumor cell lines
The current study was undertaken to assess response to aryl hydrocarbon receptor antagonists in combination with standard-of-care drugs and investigational agents in solid tumor complex spheroid models. Complex spheroids include a stromal component modeled by human endothelial cells (HUVEC) and fibroblasts modeled by human mesenchymal stem cells (MSCs). The concentration ranges selected for each drug and investigational agent were based upon clinically achievable concentrations if the clinical Cmax of the agent was known.
Compounds. The drugs and investigational agents: BAY 2416964 (NSC825713), GNF351 (NSC835774), CH-223191 (NSC835775), CPI-455 (NSC825282), aza-TdCyd (NSC777586), decitabine (NSC127716), belinostat (NSC758774), entinostat (NSC756642), pevonedistat (NSC761192), tazemetostat (NSC777109), talazoparib (NSC765396), olaparib (NSC753686), selinexor (NSC780203), nedisertib (M3814, NSC802822), bortezomib (NSC756655), venetoclax (NSC766270), doxorubicin (NSC123127), elimusertib (BAY189344, NSC800525), ceralasertib (AZD6738, NSC777638), TAK-243 (NSC785004), alisertib (NSC759677), etoposide (NSC141540), topotecan (NSC609699), eribulin (NSC707389), gemcitabine (NSC613327), carboplatin (NSC241240), cisplatin (NSC119875), and SN-38 (NSC673596) were obtained from the National Cancer Institute (NCI) Developmental Therapeutics Program Chemical Repository (32). The FDA-approved anticancer drug set is available from the Developmental Therapeutics Program at https://dtp.cancer.gov/organization/dscb/obtaining/available plates.htm. […] The stock solutions were prepared in dimethyl sulfoxide (DMSO, Sigma-Aldrich, St. Louis, MO, cat. D2650), except for the platinum compounds which were prepared in saline (Quality Biological, Gaithersburg, MD, cat. 114-055-101), at 800-fold the tested concentration and stored at -70 degrees C prior to their use. All drugs and investigational agents were tested over a range starting from a high concentration at or near the clinical Cmax and decreasing in half-log increments. If the clinical Cmax for an agent had not been determined, the highest concentration tested was 10 microM (Table 1).
Cell Culture. All cells were maintained in an incubator at 37 degrees C and 5% CO2 with 95% humidity. The PDC lines were cultured according to standard operating procedures established by the NCI PDMR (https://pdmr.cancer.gov). Briefly, all PDCs were thawed and cultured in Matrigel-coated flasks prepared with a working solution of 1X Ham's F-12 nutrient mix, without supplementation (Invitrogen, Waltham, MA, cat. 11765054), 100 U/mL penicillin-streptomycin (Invitrogen, cat. 15140122), and 2.5% Matrigel (Corning Inc., Corning, NY, cat. 354248) for the first three passages. All PDCs were cultured in complete DMEM/F-12 media containing advanced DMEM/F-12 (Invitrogen, cat. 12634028), 4.9% defined fetal bovine serum, heat inactivated (HyClone Laboratories Inc., Logan, UT, cat. SH30070.03HI), 389 ng/mL hydrocortisone (Sigma-Aldrich, cat. H4001), 9.7 ng/mL human EGF recombinant protein (Invitrogen, cat. PHG0313), 23.4 microg/mL adenine (Sigma-Aldrich, cat. A2786), 97.3 U/mL penicillin-streptomycin (Invitrogen, cat. 15140122), 1.9 mM L-glutamine (Invitrogen, cat. 25030081), and 9.7 microM Y-27632 dihydrochloride (Tocris Bioscience, Bristol, United Kingdom, cat. 1254). The PDCs were cultured in complete DMEM/F12 media without 10 microM Y-27632 dihydrochloride for at least two passages prior to the screen. The established cell lines NCI-H1341 and […] were cultured in DMEM/F-12, HEPES (Invitrogen, cat. 11330032), 5% defined fetal bovine serum (HyClone Laboratories Inc., cat. SH30070.03), ITS premix universal culture supplement [insulin (5 microg/mL), transferrin (5 microg/mL), and selenious acid (5 ng/mL)] […]

[1] = curve of first compound, second compound 0.1 µM
[2] = curve of first compound, second compound 0.316 µM
[3] = curve of first compound, second compound 1 µM
[4] = curve of first compound, second compound 3.16 µM
[5] = curve of first compound, second compound 10 µM
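Further: spheroids exposed to agents for seven days before luminescence viability read.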
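Wherever viability, T/C is given: spheroids also contain HUVEC endothelial cells and human MSC stroma.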

Q: `CCN(c1cc(-c2ccc(CN3CCOCC3)cc2)cc(C(=O)NCc2c(C)cc(C)[nH]c2=O)c1C)C1CCOCC1` + CC(CO)NC(=O)c1cc(-c2ccc(Cl)cc2)nn(-c2cnn(C)c2)c1=O was tested. Which pIC50 [1] did it give?
A: < 5.52

Q: What about the pIC50 [2] of the same compound?
A: < 5.52

Q: What about the pIC50 [3] of the same compound?
A: < 5.52

Q: What about the pIC50 [4] of the same compound?
A: < 5.52

Q: And the pIC50 [5]?
A: 6.56

Q: And the viability, T/C (second compound 0.1 µM, first compound 0.00949 µM)?
A: 110%

Q: What about the viability, T/C (second compound 0.1 µM, first compound 0.03 µM) of the same compound?
A: 110%

Q: And the viability, T/C (second compound 0.1 µM, first compound 0.0949 µM)?
A: 86.7%

Q: What about the viability, T/C (second compound 0.1 µM, first compound 0.3 µM) of the same compound?
A: 79.4%

Q: And the viability, T/C (second compound 0.1 µM, first compound 0.949 µM)?
A: 87.1%

Q: And the viability, T/C (second compound 0.1 µM, first compound 3 µM)?
A: 74.7%

Q: What about the viability, T/C (second compound 0.316 µM, first compound 0.00949 µM) of the same compound?
A: 95%

Q: What about the viability, T/C (second compound 0.316 µM, first compound 0.03 µM) of the same compound?
A: 118%

Q: What about the viability, T/C (second compound 0.316 µM, first compound 0.0949 µM) of the same compound?
A: 107%

Q: What about the viability, T/C (second compound 0.316 µM, first compound 0.3 µM) of the same compound?
A: 89.2%

Q: And the viability, T/C (second compound 0.316 µM, first compound 0.949 µM)?
A: 96%

Q: What about the viability, T/C (second compound 0.316 µM, first compound 3 µM) of the same compound?
A: 76.1%

Q: What about the viability, T/C (second compound 1 µM, first compound 0.00949 µM) of the same compound?
A: 114%

Q: And the viability, T/C (second compound 1 µM, first compound 0.03 µM)?
A: 123%

Q: And the viability, T/C (second compound 1 µM, first compound 0.0949 µM)?
A: 107%

Q: What about the viability, T/C (second compound 1 µM, first compound 0.3 µM) of the same compound?
A: 76.2%

Q: And the viability, T/C (second compound 1 µM, first compound 0.949 µM)?
A: 95.1%

Q: And the viability, T/C (second compound 1 µM, first compound 3 µM)?
A: 59.7%

Q: And the viability, T/C (second compound 3.16 µM, first compound 0.00949 µM)?
A: 77.5%

Q: What about the viability, T/C (second compound 3.16 µM, first compound 0.03 µM) of the same compound?
A: 63.4%

Q: And the viability, T/C (second compound 3.16 µM, first compound 0.0949 µM)?
A: 72.4%

Q: What about the viability, T/C (second compound 3.16 µM, first compound 0.3 µM) of the same compound?
A: 67.9%

Q: What about the viability, T/C (second compound 3.16 µM, first compound 0.949 µM) of the same compound?
A: 41.9%

Q: What about the viability, T/C (second compound 3.16 µM, first compound 3 µM) of the same compound?
A: 70.4%

Q: And the viability, T/C (second compound 10 µM, first compound 0.00949 µM)?
A: 54.2%

Q: What about the viability, T/C (second compound 10 µM, first compound 0.03 µM) of the same compound?
A: 79%

Q: And the viability, T/C (second compound 10 µM, first compound 0.0949 µM)?
A: 85.6%

Q: And the viability, T/C (second compound 10 µM, first compound 0.3 µM)?
A: 40.5%

Q: And the viability, T/C (second compound 10 µM, first compound 0.949 µM)?
A: 55.5%

Q: And the viability, T/C (second compound 10 µM, first compound 3 µM)?
A: 47.9%

Q: How did the viability, T/C (compound 0.0316 µM) turn out when `CC1(C)CCC(CN2CCN(c3ccc(C(=O)NS(=O)(=O)c4ccc(NCC5CCOCC5)c([N+](=O)[O-])c4)c(Oc4cnc5[nH]ccc5c4)c3)CC2)=C(c2ccc(Cl)cc2)C1` was run?
A: 97.2% and 117% and 104%

Q: What about the viability, T/C (compound 0.1 µM) of the same compound?
A: 110% and 106% and 101%

Q: And the viability, T/C (compound 0.316 µM)?
A: 102% and 92.4% and 105%

Q: And the viability, T/C (compound 1 µM)?
A: 94.9% and 91.9% and 76.2%

Q: And the viability, T/C (compound 3.16 µM)?
A: 106% and 100% and 68.8%

Q: What about the viability, T/C (compound 10 µM) of the same compound?
A: 96.6% and 33.3% and 37.7%

Q: And the pIC50 (curve of compound)?
A: < 5.00 and 5.12 and 5.22

Q: `CC[C@@]1(O)C(=O)OCc2c1cc1n(c2=O)Cc2cc3c(CN(C)C)c(O)ccc3nc2-1` + CC(CO)NC(=O)c1cc(-c2ccc(Cl)cc2)nn(-c2cnn(C)c2)c1=O was tested. Which pIC50 [1] did it give?
A: 7.61

Q: What about the pIC50 [2] of the same compound?
A: 7.77

Q: What about the pIC50 [3] of the same compound?
A: 7.97

Q: And the pIC50 [4]?
A: 7.91

Q: And the pIC50 [5]?
A: 8.44

Q: And the viability, T/C (second compound 0.1 µM, first compound 0.000316 µM)?
A: 90%

Q: What about the viability, T/C (second compound 0.1 µM, first compound 0.001 µM) of the same compound?
A: 115%

Q: And the viability, T/C (second compound 0.1 µM, first compound 0.00316 µM)?
A: 97.5%

Q: What about the viability, T/C (second compound 0.1 µM, first compound 0.01 µM) of the same compound?
A: 75.7%

Q: What about the viability, T/C (second compound 0.1 µM, first compound 0.0316 µM) of the same compound?
A: 43.9%

Q: And the viability, T/C (second compound 0.1 µM, first compound 0.1 µM)?
A: 16.2%

Q: And the viability, T/C (second compound 0.316 µM, first compound 0.000316 µM)?
A: 136%

Q: What about the viability, T/C (second compound 0.316 µM, first compound 0.001 µM) of the same compound?
A: 118%

Q: And the viability, T/C (second compound 0.316 µM, first compound 0.00316 µM)?
A: 87.8%

Q: And the viability, T/C (second compound 0.316 µM, first compound 0.01 µM)?
A: 60.9%

Q: And the viability, T/C (second compound 0.316 µM, first compound 0.0316 µM)?
A: 37.7%

Q: What about the viability, T/C (second compound 0.316 µM, first compound 0.1 µM) of the same compound?
A: 12.8%

Q: What about the viability, T/C (second compound 1 µM, first compound 0.000316 µM) of the same compound?
A: 118%

Q: And the viability, T/C (second compound 1 µM, first compound 0.001 µM)?
A: 136%

Q: And the viability, T/C (second compound 1 µM, first compound 0.00316 µM)?
A: 72.4%

Q: What about the viability, T/C (second compound 1 µM, first compound 0.01 µM) of the same compound?
A: 57.8%

Q: What about the viability, T/C (second compound 1 µM, first compound 0.0316 µM) of the same compound?
A: 29.3%

Q: And the viability, T/C (second compound 1 µM, first compound 0.1 µM)?
A: 12.8%

Q: And the viability, T/C (second compound 3.16 µM, first compound 0.000316 µM)?
A: 92.9%

Q: What about the viability, T/C (second compound 3.16 µM, first compound 0.001 µM) of the same compound?
A: 93.2%

Q: And the viability, T/C (second compound 3.16 µM, first compound 0.00316 µM)?
A: 83.4%

Q: And the viability, T/C (second compound 3.16 µM, first compound 0.01 µM)?
A: 56.3%

Q: What about the viability, T/C (second compound 3.16 µM, first compound 0.0316 µM) of the same compound?
A: 21.9%

Q: And the viability, T/C (second compound 3.16 µM, first compound 0.1 µM)?
A: 12.4%

Q: And the viability, T/C (second compound 10 µM, first compound 0.000316 µM)?
A: 51.1%

Q: And the viability, T/C (second compound 10 µM, first compound 0.001 µM)?
A: 65%

Q: And the viability, T/C (second compound 10 µM, first compound 0.00316 µM)?
A: 51.3%

Q: What about the viability, T/C (second compound 10 µM, first compound 0.01 µM) of the same compound?
A: 35%

Q: And the viability, T/C (second compound 10 µM, first compound 0.0316 µM)?
A: 23.1%

Q: And the viability, T/C (second compound 10 µM, first compound 0.1 µM)?
A: 13.6%
